# pIC50, pKi: −log10 of the molar value.
# Test system: not listed separately
# Experiment: Displacement of [3H]Spiperone from recombinant human Dopamine D4.4 receptor expressed in CHO-K1 cell membranes at 10 uM after 120 mins relative to control
# Details: not given
row,Structure (SMILES),inhibition
1,Fc1ccc2[nH]cc(CN3CCC(F)(F)[C@@H](CCc4ccccc4)C3)c2c1,55%
2,Cc1ccc(CN2CCC(F)(F)[C@H](CCc3ccccc3)C2)cc1C,77%
3,COc1cccc(CCC2CN(Cc3c[nH]c4cc(F)ccc34)CCC2(F)F)c1 (racemic),88%
4,COc1ccc2c(CN3CCC(F)(F)C(CCc4cccc(F)c4)C3)c[nH]c2c1 (racemic),93%
5,FC1(F)CCN(Cc2ccc3ncccc3c2)CC1CCc1ccccc1 (racemic),87%
6,Cc1ccc(CN2CCC(F)(F)C(CCc3ccccc3)C2)cc1C (racemic),85%
7,COc1ccc2c(CN3CCC(F)(F)C(CCc4ccccc4F)C3)c[nH]c2c1 (racemic),95%
8,Fc1ccc(CCC2CN(Cc3ncn4ccccc34)CCC2(F)F)cc1 (racemic),97%
9,Fc1cccc(CCC2CN(Cc3c[nH]c4cc(F)ccc34)CCC2(F)F)c1 (racemic),92%
10,COc1ccccc1CCC1CN(Cc2c[nH]c3cc(Cl)ccc23)CCC1(F)F (racemic),94%
11,COc1cccc(CCC2CN(Cc3c[nH]c4cc(OC)ccc34)CCC2(F)F)c1 (racemic),89%
12,COc1ccc2c(CN3CCC(F)(F)C(CCc4ccc(F)cc4)C3)c[nH]c2c1 (racemic),96%
13,COc1ccc(CCC2CN(Cc3c[nH]c4cc(Cl)ccc34)CCC2(F)F)cc1 (racemic),88%
14,Fc1cccc(CCC2CN(Cc3c[nH]c4cc(Cl)ccc34)CCC2(F)F)c1 (racemic),94%
15,Fc1ccc(CCC2CN(Cc3c[nH]c4cc(F)ccc34)CCC2(F)F)cc1 (racemic),94%
16,COc1ccc2c(CN3CCC(F)(F)C(CCc4ccccc4OC)C3)c[nH]c2c1 (racemic),76%
17,CSc1ccc(CN2CCC(F)(F)C(CCc3ccccc3)C2)cc1 (racemic),93%
18,FC1(F)CCN(Cc2ccc3ccccc3c2)CC1CCc1ccccc1 (racemic),80%
19,COc1ccc(CCC2CN(Cc3c[nH]c4cc(OC)ccc34)CCC2(F)F)cc1 (racemic),93%
20,FC1(F)CCN(Cc2ncn3ccccc23)CC1CCc1ccccc1 (racemic),90%

# Test system: not listed separately
# Experiment: Intrinsic clearance in human liver microsomes by HPLC/MS analysis
# Format: ADME
# Details: read-out: CLH
row,Structure (SMILES),CLint scaled
1,Fc1ccc2[nH]cc(CN3CCC(F)(F)[C@@H](CCc4ccccc4)C3)c2c1,70.5 mL/min/kg
2,Cc1ccc(CN2CCC(F)(F)[C@H](CCc3ccccc3)C2)cc1C,108 mL/min/kg

# Test system: not listed separately
# Experiment: Ratio of drug level in brain to plasma in rat at 0.25 mg/kg, iv administered through cassette dosing after 0.25 hrs by LC/MS/MS analysis
# Format: ADME, organism-based
# Details: not given
row,Structure (SMILES),Kp at 0.25 h
1,Cc1ccc(CN2CCC(F)(F)[C@H](CCc3ccccc3)C2)cc1C,2.1

# Test system: not listed separately
# Experiment: Unbound fraction in rat plasma by HPLC/MS based equilibrium dialysis method
# Format: ADME, cell-free
# Details: not given
row,Structure (SMILES),fraction unbound
1,Fc1ccc2[nH]cc(CN3CCC(F)(F)[C@@H](CCc4ccccc4)C3)c2c1,0.001
2,Cc1ccc(CN2CCC(F)(F)[C@H](CCc3ccccc3)C2)cc1C,0.004

# Test system: not listed separately
# Experiment: Intrinsic clearance in rat liver microsomes by HPLC/MS analysis
# Format: ADME
# Details: read-out: CLH
row,Structure (SMILES),CLint scaled
1,Fc1ccc2[nH]cc(CN3CCC(F)(F)[C@@H](CCc4ccccc4)C3)c2c1,1910 mL/min/kg
2,Cc1ccc(CN2CCC(F)(F)[C@H](CCc3ccccc3)C2)cc1C,1670 mL/min/kg

# Target: D(1A) dopamine receptor (Homo sapiens) (UniProt P21728)
# Experiment: Displacement of [3H]SCH-23390 from recombinant human Dopamine D1 receptor expressed in CHO cell membranes at 10 uM after 120 mins relative to control
# Details: not given
# D(1A) dopamine receptor (Homo sapiens), sequence (P21728 whole entry): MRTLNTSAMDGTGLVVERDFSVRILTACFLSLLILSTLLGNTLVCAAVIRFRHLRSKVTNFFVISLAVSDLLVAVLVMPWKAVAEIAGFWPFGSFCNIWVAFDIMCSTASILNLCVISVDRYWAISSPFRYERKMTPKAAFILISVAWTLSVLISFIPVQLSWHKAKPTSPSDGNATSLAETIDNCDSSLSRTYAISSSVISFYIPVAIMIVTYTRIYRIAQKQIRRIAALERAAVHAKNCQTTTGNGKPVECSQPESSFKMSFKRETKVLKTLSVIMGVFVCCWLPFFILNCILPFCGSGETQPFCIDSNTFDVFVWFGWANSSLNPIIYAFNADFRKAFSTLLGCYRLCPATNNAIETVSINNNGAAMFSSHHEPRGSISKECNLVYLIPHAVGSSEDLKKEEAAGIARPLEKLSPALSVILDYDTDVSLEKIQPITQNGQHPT
row,Structure (SMILES),inhibition
1,Cc1ccc(CN2CCC(F)(F)C(CCc3ccccc3)C2)cc1C (racemic),< 20%
2,COc1ccc2c(CN3CCC(F)(F)C(CCc4ccccc4F)C3)c[nH]c2c1 (racemic),< 50%
3,Fc1ccc(CCC2CN(Cc3ncn4ccccc34)CCC2(F)F)cc1 (racemic),< 50%
4,Fc1cccc(CCC2CN(Cc3c[nH]c4cc(F)ccc34)CCC2(F)F)c1 (racemic),< 50%
5,FC1(F)CCN(Cc2ncn3ccccc23)CC1CCc1ccccc1 (racemic),< 50%

# Target: D(3) dopamine receptor (Homo sapiens) (UniProt P35462)
# Experiment: Displacement of [3H]Spiperone from recombinant human Dopamine D3 receptor expressed in CHO cell membranes at 10 uM after 120 mins relative to control
# Details: not given
# D(3) dopamine receptor (Homo sapiens), sequence (P35462 whole entry): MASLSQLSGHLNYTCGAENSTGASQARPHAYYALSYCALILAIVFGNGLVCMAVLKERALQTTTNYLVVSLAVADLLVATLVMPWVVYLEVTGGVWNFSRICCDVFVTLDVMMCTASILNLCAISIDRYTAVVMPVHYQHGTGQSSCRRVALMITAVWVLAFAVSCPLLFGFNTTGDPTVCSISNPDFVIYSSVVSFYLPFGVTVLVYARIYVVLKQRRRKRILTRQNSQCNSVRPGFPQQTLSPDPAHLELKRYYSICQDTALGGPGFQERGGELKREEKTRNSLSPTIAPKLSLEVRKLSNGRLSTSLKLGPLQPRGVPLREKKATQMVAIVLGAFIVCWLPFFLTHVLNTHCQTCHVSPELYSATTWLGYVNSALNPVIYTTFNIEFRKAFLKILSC
row,Structure (SMILES),inhibition
1,Cc1ccc(CN2CCC(F)(F)C(CCc3ccccc3)C2)cc1C (racemic),< 20%
2,COc1ccc2c(CN3CCC(F)(F)C(CCc4ccccc4F)C3)c[nH]c2c1 (racemic),80%
3,Fc1ccc(CCC2CN(Cc3ncn4ccccc34)CCC2(F)F)cc1 (racemic),< 50%
4,Fc1cccc(CCC2CN(Cc3c[nH]c4cc(F)ccc34)CCC2(F)F)c1 (racemic),< 50%
5,FC1(F)CCN(Cc2ncn3ccccc23)CC1CCc1ccccc1 (racemic),< 50%

# Test system: not listed separately
# Experiment: Displacement of [3H]Spiperone from recombinant human Dopamine D4.4 receptor expressed in CHO-K1 cell membranes after 120 mins
# Details: not given
Structure (SMILES),pIC50,pKi
Cc1ccc(CN2CCC(F)(F)[C@H](CCc3ccccc3)C2)cc1C,6.64,7.20
COc1cccc(CCC2CN(Cc3c[nH]c4cc(F)ccc34)CCC2(F)F)c1 (racemic),5.81,6.37
COc1ccc2c(CN3CCC(F)(F)C(CCc4cccc(F)c4)C3)c[nH]c2c1 (racemic),7.35,7.90
FC1(F)CCN(Cc2ccc3ncccc3c2)CC1CCc1ccccc1 (racemic),5.87,6.42
Cc1ccc(CN2CCC(F)(F)C(CCc3ccccc3)C2)cc1C (racemic),6.52,7.09
COc1ccc2c(CN3CCC(F)(F)C(CCc4ccccc4F)C3)c[nH]c2c1 (racemic),7.68,8.23
Fc1ccc(CCC2CN(Cc3ncn4ccccc34)CCC2(F)F)cc1 (racemic),7.46,8.01
Fc1cccc(CCC2CN(Cc3c[nH]c4cc(F)ccc34)CCC2(F)F)c1 (racemic),7.11,7.68
COc1ccccc1CCC1CN(Cc2c[nH]c3cc(Cl)ccc23)CCC1(F)F (racemic),6.64,7.19
COc1cccc(CCC2CN(Cc3c[nH]c4cc(OC)ccc34)CCC2(F)F)c1 (racemic),6.26,6.82
COc1ccc2c(CN3CCC(F)(F)C(CCc4ccc(F)cc4)C3)c[nH]c2c1 (racemic),7.43,7.99
COc1ccc(CCC2CN(Cc3c[nH]c4cc(Cl)ccc34)CCC2(F)F)cc1 (racemic),6.19,6.74
Fc1cccc(CCC2CN(Cc3c[nH]c4cc(Cl)ccc34)CCC2(F)F)c1 (racemic),6.80,7.36
Fc1ccc(CCC2CN(Cc3c[nH]c4cc(F)ccc34)CCC2(F)F)cc1 (racemic),7.60,8.15
COc1ccc2c(CN3CCC(F)(F)C(CCc4ccccc4OC)C3)c[nH]c2c1 (racemic),6.43,7.00
CSc1ccc(CN2CCC(F)(F)C(CCc3ccccc3)C2)cc1 (racemic),6.29,6.85
FC1(F)CCN(Cc2ccc3ccccc3c2)CC1CCc1ccccc1 (racemic),6.10,6.66
COc1ccc(CCC2CN(Cc3c[nH]c4cc(OC)ccc34)CCC2(F)F)cc1 (racemic),6.37,6.92
FC1(F)CCN(Cc2ncn3ccccc23)CC1CCc1ccccc1 (racemic),6.92,7.47

# Test system: not listed separately
# Experiment: Drug uptake in rat brain at 0.25 mg/kg, iv administered through cassette dosing after 0.25 hrs by LC/MS/MS analysis
# Format: ADME, organism-based
# Details: brain, read-out: Drug uptake
row,Structure (SMILES),concentration at 0.25 h
1,Cc1ccc(CN2CCC(F)(F)[C@H](CCc3ccccc3)C2)cc1C,93.7 ng/g

# Same assay, conditions: in vivo, 0.25 h, BLD = below limit of detection
row,Structure (SMILES),Drug uptake
1,Fc1ccc2[nH]cc(CN3CCC(F)(F)[C@@H](CCc4ccccc4)C3)c2c1,Bld

# Test system: not listed separately
# Experiment: Plasma concentration in rat at 0.25 mg/kg, iv administered through cassette dosing after 0.25 hrs by LC/MS/MS analysis
# Format: ADME, organism-based
# Details: not given
row,Structure (SMILES),concentration at 0.25 h
1,Fc1ccc2[nH]cc(CN3CCC(F)(F)[C@@H](CCc4ccccc4)C3)c2c1,25.3 ng/mL
2,Cc1ccc(CN2CCC(F)(F)[C@H](CCc3ccccc3)C2)cc1C,44.4 ng/mL

# Target: D(2) dopamine receptor (Homo sapiens) (UniProt P14416)
# Experiment: Displacement of [3H]Spiperone from recombinant human Dopamine D2S receptor expressed in CHO cell membranes at 10 uM after 120 mins relative to control
# Details: not given
# D(2) dopamine receptor (Homo sapiens), sequence (P14416 whole entry): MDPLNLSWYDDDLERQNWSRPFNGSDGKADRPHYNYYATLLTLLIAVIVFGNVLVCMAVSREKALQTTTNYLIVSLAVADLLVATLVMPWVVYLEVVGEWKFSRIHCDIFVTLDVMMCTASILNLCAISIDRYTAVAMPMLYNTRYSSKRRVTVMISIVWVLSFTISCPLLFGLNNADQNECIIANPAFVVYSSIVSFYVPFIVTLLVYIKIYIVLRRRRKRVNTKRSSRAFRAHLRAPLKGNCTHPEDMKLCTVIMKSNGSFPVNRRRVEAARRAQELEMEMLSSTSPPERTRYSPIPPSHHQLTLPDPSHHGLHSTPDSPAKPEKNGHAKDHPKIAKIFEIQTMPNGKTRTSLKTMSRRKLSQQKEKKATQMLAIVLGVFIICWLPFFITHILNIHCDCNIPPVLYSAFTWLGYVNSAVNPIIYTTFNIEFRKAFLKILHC
row,Structure (SMILES),inhibition
1,Cc1ccc(CN2CCC(F)(F)C(CCc3ccccc3)C2)cc1C (racemic),< 20%
2,COc1ccc2c(CN3CCC(F)(F)C(CCc4ccccc4F)C3)c[nH]c2c1 (racemic),66%
3,Fc1ccc(CCC2CN(Cc3ncn4ccccc34)CCC2(F)F)cc1 (racemic),< 50%
4,Fc1cccc(CCC2CN(Cc3c[nH]c4cc(F)ccc34)CCC2(F)F)c1 (racemic),< 50%
5,FC1(F)CCN(Cc2ncn3ccccc23)CC1CCc1ccccc1 (racemic),< 50%

# Target: D(1B) dopamine receptor (Homo sapiens) (UniProt P21918)
# Experiment: Displacement of [3H]SCH-23390 from recombinant human Dopamine D5 receptor expressed in CHO cell membranes at 10 uM after 120 mins relative to control
# Details: not given
# D(1B) dopamine receptor (Homo sapiens), sequence (P21918 whole entry): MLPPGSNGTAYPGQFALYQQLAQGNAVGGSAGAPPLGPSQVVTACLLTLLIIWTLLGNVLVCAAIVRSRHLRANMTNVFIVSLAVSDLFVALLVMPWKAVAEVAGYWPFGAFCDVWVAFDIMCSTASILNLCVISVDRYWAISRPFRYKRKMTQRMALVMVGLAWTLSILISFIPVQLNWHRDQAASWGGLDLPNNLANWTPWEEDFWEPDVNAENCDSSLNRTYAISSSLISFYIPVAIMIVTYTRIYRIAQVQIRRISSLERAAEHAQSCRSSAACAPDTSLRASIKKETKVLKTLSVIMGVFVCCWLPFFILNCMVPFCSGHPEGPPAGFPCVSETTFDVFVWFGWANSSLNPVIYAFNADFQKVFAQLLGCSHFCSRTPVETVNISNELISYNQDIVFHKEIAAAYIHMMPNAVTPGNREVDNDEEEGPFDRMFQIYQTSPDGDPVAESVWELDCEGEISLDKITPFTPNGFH
row,Structure (SMILES),inhibition
1,Cc1ccc(CN2CCC(F)(F)C(CCc3ccccc3)C2)cc1C (racemic),< 20%
2,COc1ccc2c(CN3CCC(F)(F)C(CCc4ccccc4F)C3)c[nH]c2c1 (racemic),< 50%
3,Fc1ccc(CCC2CN(Cc3ncn4ccccc34)CCC2(F)F)cc1 (racemic),< 50%
4,Fc1cccc(CCC2CN(Cc3c[nH]c4cc(F)ccc34)CCC2(F)F)c1 (racemic),< 50%
5,FC1(F)CCN(Cc2ncn3ccccc23)CC1CCc1ccccc1 (racemic),< 50%

# Test system: not listed separately
# Experiment: Unbound fraction in human plasma by HPLC/MS based equilibrium dialysis method
# Format: ADME, cell-free
# Details: not given
row,Structure (SMILES),fraction unbound
1,Fc1ccc2[nH]cc(CN3CCC(F)(F)[C@@H](CCc4ccccc4)C3)c2c1,0.001
2,Cc1ccc(CN2CCC(F)(F)[C@H](CCc3ccccc3)C2)cc1C,0.005

# Target: D(2) dopamine receptor (Homo sapiens) (UniProt P14416)
# Experiment: Displacement of [3H]Spiperone from recombinant human Dopamine D2L receptor expressed in CHO cell membranes at 10 uM after 120 mins relative to control
# Details: not given
row,Structure (SMILES),inhibition
1,Cc1ccc(CN2CCC(F)(F)C(CCc3ccccc3)C2)cc1C (racemic),< 20%
2,COc1ccc2c(CN3CCC(F)(F)C(CCc4ccccc4F)C3)c[nH]c2c1 (racemic),< 50%
3,Fc1ccc(CCC2CN(Cc3ncn4ccccc34)CCC2(F)F)cc1 (racemic),< 50%
4,Fc1cccc(CCC2CN(Cc3c[nH]c4cc(F)ccc34)CCC2(F)F)c1 (racemic),< 50%
5,FC1(F)CCN(Cc2ncn3ccccc23)CC1CCc1ccccc1 (racemic),< 50%
